In ChEMBL document CHEMBL3045557, “A new benzil derivative from Derris scandens: Structure-insecticidal activity study” (2010):
Activity calls are given as the source filed them. The calls are words filed in the database; no cut-off is given here.

What was measured:
Achaea janata [1] = test: Antifeedant activity against Achaea janata by conventional no-choice disk method; type: functional
Achaea janata [2] = test: Insecticidal activity against Achaea janata assessed as larval mortality at 2 ug/larva administered through topical application; type: functional
Achaea janata [3] = test: Insecticidal activity against Achaea janata assessed as adult emergence at 2 ug/larva administered through topical application (reference value: 98.8 +/- 0.5 %); type: functional
Achaea janata [4] = test: Insecticidal activity against Achaea janata assessed as pupal mortality at 2 ug/larva administered through topical application; type: functional
Achaea janata [5] = test: Antifeedant activity against Achaea janata at 10 ug/cm2 by conventional no-choice disk method; type: functional
Achaea janata [6] = test: Insecticidal activity against Achaea janata assessed as pupal duration at 4 ug/larva administered through topical application (reference value: 10.3 +/- 0.1 days); type: functional
Achaea janata [7] = test: Toxicity against Achaea janata at 10 ug/cm2 after 24 hr by leaf disk method; type: functional
Achaea janata [8] = test: Insecticidal activity against Achaea janata assessed as larval duration at 4 ug/larva administered through topical application (reference value: 7.3 +/- 0.1 days); type: functional
Achaea janata [9] = test: Antifeedant activity against Achaea janata at 2 ug/cm2 by conventional no-choice disk method; type: functional, organism-based
Achaea janata [10] = test: Toxicity against Achaea janata after 24 hr by leaf disk method; type: functional
Achaea janata [11] = test: Insecticidal activity against Achaea janata assessed as larval mortality at 4 ug/larva administered through topical application; type: functional
Achaea janata [12] = test: Insecticidal activity against Achaea janata assessed as pupal duration at 2 ug/larva administered through topical application (reference value: 10.3 +/- 0.1 days); type: functional
Achaea janata [13] = test: Antifeedant activity against Achaea janata at 1 ug/cm2 by conventional no-choice disk method; type: functional, organism-based
Achaea janata [14] = test: Insecticidal activity against Achaea janata assessed as larval duration at 2 ug/larva administered through topical application (reference value: 7.3 +/- 0.1 days); type: functional
Achaea janata [15] = test: Insecticidal activity against Achaea janata assessed as pupal weight at 4 ug/larva administered through topical application (reference value: 696.4 +/- 2.6 mg); type: functional
Achaea janata [16] = test: Insecticidal activity against Achaea janata assessed as adult deformity at 2 ug/larva administered through topical application; type: functional
Achaea janata [17] = test: Insecticidal activity against Achaea janata assessed as pupal mortality at 4 ug/larva administered through topical application; type: functional
Achaea janata [18] = test: Insecticidal activity against Achaea janata assessed as adult emergence at 4 ug/larva administered through topical application (reference value: 98.8 +/- 0.5 %); type: functional
Achaea janata [19] = test: Insecticidal activity against Achaea janata assessed as pupal weight at 2 ug/larva administered through topical application (reference value: 696.4 +/- 2.6 mg); type: functional
Achaea janata [20] = test: Insecticidal activity against Achaea janata assessed as adult deformity at 4 ug/larva administered through topical application; type: functional
Achaea janata [21] = test: Toxicity against Achaea janata at 1.25 ug/cm2 after 24 hr by leaf disk method; type: functional
Achaea janata [22] = test: Insecticidal activity against Achaea janata assessed as larval mortality at 0.2 ug/larva administered through topical application; type: functional
Achaea janata [23] = test: Antifeedant activity against Achaea janata at 1.25 ug/cm2 by conventional no-choice disk method; type: functional

Row | Structure (SMILES) | ED50 (Achaea janata [1]) | mortality (Achaea janata [2]) [%] | Activity (Achaea janata [3]) [%] | mortality (Achaea janata [4]) [%] | AFI (Achaea janata [5]) [%] | Time (Achaea janata [6]) [days] | Activity (Achaea janata [7]) [%] | Time (Achaea janata [8]) [days] | AFI (Achaea janata [9]) | LD50 (Achaea janata [10]) | mortality (Achaea janata [11]) [%] | Time (Achaea janata [12]) [days] | AFI (Achaea janata [13]) | Time (Achaea janata [14]) [days] | Activity (Achaea janata [15]) [mg] | Activity (Achaea janata [16]) [%] | mortality (Achaea janata [17]) [%] | Activity (Achaea janata [18]) [%] | Activity (Achaea janata [19]) [mg] | Activity (Achaea janata [20]) [%] | other results
1 | COc1c(CC=C(C)C)c2c(c(O)c1C(=O)C(=O)c1ccc(O)cc1)C=CC(C)(C)O2 | 3.31 microg/cm2 | 15.1 | 34.5 | 20 | 96.8 | 13.5 | 100 | 8.5 | inactive | 3.56 microg/cm2 | 39.3 | 13 | inactive | 7.8 | 515.4 | 16.2 | 31.6 | 6.7 | 524.4 | 19 | –
2 | C/C=C(\C)C(=O)O[C@H]1C[C@@H](OC(C)=O)[C@@]2(C(=O)OC)CO[C@H]3[C@@H](O)[C@@](C)([C@]45O[C@@]4(C)[C@@H]4C[C@H]5O[C@@H]5OC=C[C@@]54O)[C@H]4[C@]1(CO[C@]4(O)C(=O)OC)[C@@H]32 [AZADIRACHTIN A] | 0.72 microg/cm2 | – | 98.8 | 0 | – | 10.3 | – | – | – | 0.67 microg/cm2 | – | 10.3 | – | – | 696.4 | 0 | 0 | 98.8 | 696.4 | 0 | Activity (Achaea janata [21]): 100%; mortality (Achaea janata [22]): 100%; AFI (Achaea janata [23]): 100%
3 | COc1c2c(c(CC=C(C)C)c(O)c1C(=O)C(=O)c1ccc(O)cc1)OC(C)(C)C=C2 [Derrisdione A] | 7.18 microg/cm2 | 0 | 35.4 | 29.8 | 58.6 | 12.5 | 18.2 | 10.5 | inactive | inactive | 0 | 10.9 | inactive | 9.3 | 597.8 | 19.5 | 36.2 | 29.8 | 592.6 | 21.1 | –
4 | O=c1c(-c2ccc(O)cc2)coc2cc(O)cc(O)c12 [GENISTEIN] | 3.22 microg/cm2 | 31 | 27 | 17.2 | 97.7 | – | 100 | 10.3 | inactive | 3.29 microg/cm2 | 48.6 | 13.1 | inactive | 7.8 | 532 | 10.6 | 22.5 | 7.7 | 518 | 11.8 | –
5 | CC(C)=CCc1c2c(c(O)c3c(=O)cc(-c4ccc(O)cc4)oc13)C=CC(C)(C)O2 [LAXIFOLIN] | inactive | 20.6 | 59.6 | 12 | 2.6 | 14.1 | 0 | 11.1 | inactive | inactive | 25.2 | 10.7 | inactive | 8.5 | 552 | 0 | 27.4 | 24.9 | 567.2 | 2.3 | –
6 | CC(C)=CCc1cc(-c2coc3cc(O)c(CC=C(C)C)c(O)c3c2=O)ccc1O [LUPALBIGENIN] | inactive | 0 | 62.7 | 26.4 | 22.4 | 12.9 | 0 | 9.7 | inactive | inactive | 18.8 | 11.4 | inactive | 7.7 | 587 | 9.5 | 32.2 | 32.8 | 612 | 9.1 | –
7 | CC(C)=CCc1c2c(c3occ(-c4ccc(O)cc4)c(=O)c3c1O)C=CC(C)(C)O2 [OSAJIN] | 3.18 microg/cm2 | 12.2 | 18 | 47.8 | 100 | 15.5 | 98.2 | 11.2 | inactive | 3.54 microg/cm2 | 33.4 | 13.8 | inactive | 10.4 | 504.8 | 10 | 45.6 | 2.9 | 584.8 | 15.7 | –
8 | COc1ccc(-c2c(O)c3c(OC)c(CC=C(C)C)c4c(c3oc2=O)C=CC(C)(C)O4)cc1 [SCANDENIN A] | inactive | 11.6 | 71.5 | 19.8 | 4 | 10.5 | 0 | 11.1 | inactive | inactive | 15.2 | 10.5 | inactive | 9.3 | 605 | 0 | 32.8 | 31.5 | 601.2 | 6.6 | –
9 | COc1c(CC=C(C)C)c2c(c3oc(=O)c(-c4ccc(O)cc4)c(O)c13)C=CC(C)(C)O2 [SCANDENIN] | 3.85 microg/cm2 | 0 | 75.3 | 13.5 | 96.5 | 11.3 | 86.4 | 10.8 | inactive | 5.28 microg/cm2 | 42.6 | 11.2 | inactive | 8.2 | 514.2 | 0 | 24.8 | 18.6 | 550.8 | 10.9 | –
10 | COc1c(CC=C(C)C)c2c(c3occ(-c4ccc(O)cc4)c(=O)c13)C=CC(C)(C)O2 [SCANDINONE] | inactive | 6.8 | 65.3 | 13.6 | 1.3 | 12.5 | 14.6 | 10.5 | inactive | inactive | 17 | 11.8 | inactive | 8.2 | 592 | 3.5 | 23.4 | 34.2 | 621.8 | 5.4 | –
11 | C[C@@H]1O[C@@H](OC[C@H]2O[C@@H](Oc3cc(O)c4c(=O)c(-c5ccc(O)cc5)coc4c3)[C@H](O)[C@@H](O)[C@@H]2O)[C@H](O)[C@H](O)[C@H]1O [SPHAEROBIOSIDE] | 3.37 microg/cm2 | 13 | 32.7 | 36 | 96.2 | 14.4 | 97.8 | 11.3 | inactive | 3.87 microg/cm2 | 31.8 | 13.3 | inactive | 10.8 | 504.8 | 0 | 41.2 | 7.5 | 508.6 | 9.5 | –
12 | CC(C)=CCc1c2c(c(O)c3c(=O)c(-c4ccc(O)cc4)coc13)C=CC(C)(C)O2 [WARANGALONE] | inactive | 0 | 63.6 | 17.8 | 6.2 | 11.9 | 6.8 | 9.8 | inactive | inactive | 0 | 11.7 | inactive | 9.4 | 572.6 | 5.5 | 27.6 | 50.3 | 633.2 | 11.8 | –
